Read-outs that look alike come from different tables or passages of the source.
Key:
Washed platelets [1] = assay: Platelet aggregation in washed platelets (aggregometer); assay type: cell-based, Human; conditions: washed platelets
Method: (§1) Human platelet purification. The blood sample was obtained from voluntary donors (10 days without antiplatelet medication) who agreed to participate after signing informed consent (Scientific Ethics Committee of the University of Talca N° 04–2022). Briefly, blood anticoagulated with acid-citrate-dextrose (ACD) was obtained in a 4:1 v/v ratio. The sample was centrifuged for 12 min at 250 g to obtain platelet-rich plasma (PRP). Subsequently, the PRP was centrifuged for 8 min at 900 g to obtain the platelet pellet. The plasma supernatant was removed, and the platelets were resuspended in Tyrodes buffer without calcium plus ACD in a ratio of 5:1 v/v. The platelets were centrifuged once more for 8 min at 900 g and the pellet was resuspended in Tyrodes buffer without calcium. Finally, the platelets were counted (Mindray BC-3000 Plus hematology counter, Japan), adjusted to the desired concentration, and used within 3 h.
Platelet aggregation. Washed platelets (200-250 × 10^6 platelets/mL) were preincubated with 2 mM CaCl2 and then with the compounds under study for 5 min at 37 °C in the aggregometer (Agg RAM- Helena Biosciences). Aggregation was initiated with the agonists: collagen 2 μg/mL; convulxin 20 ng/mL; TRAP-6 (Thrombin receptor activator peptide 6) 5 μM; PMA (Phorbol myristate acetate) 100 nM or arachidonic acid 250 μg/mL. The aggregation curve was evaluated for 5 min at 37 °C in shaking at 1000 rpm.

Washed platelets [2] = assay: Mitochondrial membrane potential (TMRM); assay type: cell-based, Human; conditions: compounds 1, 5 and 10 μM, 20 min
Method: as §1
Mitochondrial membrane potential (ΔΨm). Washed platelets (50 × 10^6 platelets/mL) were labeled with a 100 nM tetramethylrhodamine methyl ester (TMRM) probe and incubated with compounds (1, 5 and 10 μM) for 20 min at 37 °C. The sample was acquired in the BD Facs Lyric flow cytometer (BD Biosciences, USA). Representative dot plots are available in Supplementary Figs. 12, 24, and 25. Carbonyl cyanide 4-(trifluoromethoxy) phenylhydrazone (FCCP) 1 μM was used as a control for decreasing the mitochondrial membrane potential.

Washed platelets [3] = assay: Platelet activation markers in washed platelets (flow cytometry); assay type: cell-based, Human; conditions: collagen 2 μg/mL; compounds 1, 5 and 10 μM; vs activated control
Method: as §1
Platelet activation markers. Washed platelets (200-250 × 10^6 platelets/mL) were incubated with the compounds (1, 5 and 10 μM), then activated with collagen 2 μg/mL and incubated for 5 min at 37 °C. Aliquots of the reaction were then collected and labeled separately with human antibodies (BD Biosciences, San José, CA, USA) for P-selectin, CD63, activated GPIIb/IIIa (PAC-1), and fibrinogen to assess the levels of each marker on the platelet membrane. The sample was acquired using the BD Facs Lyric flow cytometer (BD Biosciences, USA). Representative dot plots are available in Supplementary Figures 8-11 and 20-23. In the case of the activation markers P-selectin and bound fibrinogen in PRP, the same procedure for washed platelets was performed with representative dot plots available in Supplementary Figs. 15 and 16. The platelet population was identified with anti-CD61-PE or anti-CD61-FITC (BD Biosciences, San José, CA, USA).

Washed platelets [4] = assay: Intraplatelet (cytosolic) ROS levels (DHE); assay type: cell-based, Human; conditions: compounds 1, 5 and 10 μM, 10 min
Method: as §1
Intraplatelet ROS levels. Washed platelets (50 × 10^6 platelets/mL) were labeled with the dihydroethidium (DHE) probe 10 μM and incubated for 20 min at 37 °C protected from light. After, compounds (1, 5, and 10 μM) were added to the platelets and incubated for 10 min at 37 °C. The sample was acquired in the BD Facs Lyric flow cytometer (BD Biosciences, USA). Representative dot plots are available in Supplementary Figs. 18 and 27. As a positive control for ROS, antimycin A 20 μM was used.

Washed platelets [5] = assay: Intraplatelet calcium levels (Fluo-4-AM); assay type: cell-based, Human; conditions: compounds 1, 5 and 10 μM, 10 min
Method: as §1
Intraplatelet calcium levels. Washed platelets (200-250 × 10^6 platelets/mL) were labeled Fluo-4-AM probe with 0.5 μM and incubated for 20 min at room temperature protected from light. Subsequently, platelets were adjusted to a count of 50 × 10^6 platelets/mL, and compounds (1, 5, and 10 μM) were added and incubated for 10 min at 37 °C. The sample was acquired in the BD Facs Lyric flow cytometer (BD Biosciences, USA). Representative dot plots are available in Supplementary Figs. 13 and 26. As a control for increased intracellular calcium, P-trifluoromethoxyphenylhydrazone carbonylcyanide (FCCP) 1 μM was used.

Washed platelets [6] = assay: Cellular cytotoxicity by release of lactate dehydrogenase (LDH); assay type: cell-based, Human; conditions: screening at 10–100 μM
Method: as §1
Cellular cytotoxicity by the release of lactate dehydrogenase (LDH). Washed platelets (200-250 × 10^6 platelets/mL) were incubated with the compounds under study or vehicle for 15 min at 37 °C. Then, the platelets were centrifuged at 900 g for 8 min to collect the supernatant. […] The absorbance was analyzed at 490 nm (Microplate Reader Thermo Scientific Multiskan Go, Finland).

platelets = assay: Oxygen consumption and extracellular acidification rate (Seahorse XFe24); assay type: cell-based, Human; conditions: 10 µM
Method: as §1
Oxygen consumption and extracellular acidification rate. Oxygen consumption rate (OCR) and extracellular acidification rate (ECAR) were measured with a Seahorse XFe24 extracellular flux analyzer (Agilent, Santa Clara, CA, USA). Briefly, 100 μL of platelets washed in modified Tyrode-HEPES buffer were deposited (20–25 × 10^6 cells/well) and then centrifuged at 300 g for 10 min. Platelets were incubated with NP4 10 μM for 5 min, and then Tyrode's-HEPES buffer was removed and Seahorse medium (8.3 g/L DMEM, 1.85 g/L NaCl, 5 mM glucose, 1 mM pyruvate, 2 mM glutamine, 5 mM HEPES, pH 7.4) was added to a final volume of 600 μL [70]. OCR was measured before and after the sequential addition of 3 μg/mL collagen, 2.5 μM oligomycin, 1.4 μM FCCP, and 2 μM/2 μM antimycin A/rotenone. Non-mitochondrial OCR was subtracted from all measurements. Respiratory parameters obtained with Mito Stress Test (Supplementary Table 1) were calculated as follows: Baseline (baseline OCR), collagen (OCR after collagen addition), activation (collagen-basal), ATP-independent or proton leak (OCR resistant to oligomycin addition), ATP-linked respiration (basal-proton leak), maximum (OCR obtained after addition of FCCP), and spare (maximal-basal), coupling efficiency (OCR Basal – OCR ATP-indep)/OCR Basal). Respiratory parameters were calculated according to Refs. [66, 70, 73].

[7] = Homo sapiens, Platelet, PMA 100 nM, read-out: IC50 for platelet aggregation, PMA
[8] = Homo sapiens, Platelet, TRAP-6 5 μM, read-out: IC50 for platelet aggregation, TRAP-6
[9] = Homo sapiens, Platelet, arachidonic acid 250 μg/mL, read-out: IC50 for platelet aggregation, Arachidonic Acid
[10] = Homo sapiens, Platelet, collagen 2 μg/mL, read-out: IC50 for platelet aggregation, Collagen

Row | Structure (SMILES) | IC50 (Washed platelets [1]; [7]) | IC50 (Washed platelets [1]; [8]) | IC50 (Washed platelets [1]; [9]) | IC50 (Washed platelets [1]; [10]) | Mitochondrial membrane potential (ΔΨm) (Washed platelets [2]) | Bound fibrinogen platelet activation marker (Washed platelets [3]) | CD63 platelet activation marker (Washed platelets [3]) | PAC-1 (activated GPIIb/IIIa) platelet activation marker (Washed platelets [3]) | Cytosolic total ROS levels (Washed platelets [4]) | Intraplatelet calcium levels (Washed platelets [5]) | other results
1 | Cc1c(C)c(O)c2c(c1O)C(=O)C(CCCCBr)=CC2(C)C [NB4, 2-(4-bromobutyl)-5,8-dihydroxy-4,4,6,7-tetramethylnaphthalen-1(4H)-one] | > 20 µM | > 20 µM | > 20 µM | 15.3 ± 2.61 µM |  |  |  |  |  |  | 
2 | COc1c(C)c(C)c(O)c2c1C(C)(C)C=C(CCCCBr)C2=O [NBO4, 2-(4-bromobutyl)-8-hydroxy-5-methoxy-4,4,6,7-tetramethylnaphthalen-1(4H)-one] | > 20 µM | > 20 µM | > 20 µM | 4.87 ± 1.15 µM |  |  |  |  |  |  | 
3 | CCCCC1=CC(C)(C)c2c(O)c(C)c(C)c(O)c2C1=O [NH4, 2-Butyl-5,8-dihydroxy-4,4,6,7-tetramethylnaphthalen-1(4H)-one] | > 20 µM | > 20 µM | > 20 µM | 4.76 ± 0.7 µM | significantly decrease | did not have significant effects | did not have significant effects | did not have significant effects | neither NP4 nor NH4 significantly affected | increase it significantly | 
4 | CCCCC1=CC(C)(C)c2c(OC)c(C)c(C)c(O)c2C1=O [NHO4, 2-Butyl-8-hydroxy-5-methoxy-4,4,6,7-tetramethylnaphthalen-1(4H)-one] | > 20 µM | > 20 µM | > 20 µM | 18.4 ± 5.26 µM |  |  |  |  |  |  | 
5 | COc1c(C)c(C)c(O)c2c1C(C)(C)C=C(CCCC[P+](c1ccccc1)(c1ccccc1)c1ccccc1)C2=O.[Br-] [NPO4, (4-(8-hydroxy-5-methoxy-4,4,6,7-tetramethyl-1-oxo-1,4-dihydronaphthalen-2-yl)butyl)triphenyl phosphonium bromide] |  |  |  |  |  |  |  |  |  |  | melting point: 91.5 to 93 °C; Cytotoxicity by LDH release (screening) (Washed platelets [6]): *NPO4 was excluded because showed high cytotoxicity
6 | CCCC[P+](c1ccccc1)(c1ccccc1)c1ccccc1 [TPPBut, butyltriphenylphosphonium cation, reference compound] |  |  |  |  | did not show any effect | did not show any effect | did not show any effect | did not show any effect | did not show any effect | did not show any effect | P-selectin platelet activation marker (Washed platelets [3]): did not show any effect; ATP-dep (OCRBasal – OCRATP-indep) (platelets): 5,68 ± 0,10; Activation (OCRCollagen – OCRBasal) (platelets): 0,59 ± 0,20; Coupling efficiency ((OCRBasal – OCRATP-indep)/OCRBasal) (platelets): 0,92 ± 0,01; Spare (OCRMaximum – OCRBasal) (platelets): 0,73 ± 0,27; Basal (OCR/10^6 platelets) (platelets; Seahorse Mito Stress Test): 6,21 ± 0,08 OCR/10^6 platelets; Maximum (OCR/10^6 platelets) (platelets; after 1.4 μM FCCP): 6,94 ± 0,19 OCR/10^6 platelets; Collagen (OCR/10^6 platelets) (platelets; after 3 μg/mL collagen): 6,80 ± 0,16 OCR/10^6 platelets; Non-mito (OCR/10^6 platelets) (platelets; after antimycin A/rotenone): 0,01 ± 0,02 OCR/10^6 platelets; ATP-indep (OCR/10^6 platelets) (platelets; proton leak, after 2.5 μM oligomycin): 0,52 ± 0,05 OCR/10^6 platelets; IC50 (Washed platelets [1]; PMA 100 nM, read-out: IC50 for platelet aggregation, PMA): > 20 µM; IC50 (Washed platelets [1]; TRAP-6 5 μM, read-out: IC50 for platelet aggregation, TRAP-6): > 20 µM; IC50 (Washed platelets [1]; arachidonic acid 250 μg/mL, read-out: IC50 for platelet aggregation, Arachidonic Acid): > 20 µM; IC50 (Washed platelets [1]; collagen 2 μg/mL, read-out: IC50 for platelet aggregation, Collagen): 13.7 ± 2.27 µM; IC50 (Washed platelets [1]; convulxin 20 ng/mL, read-out: IC50 for platelet aggregation, Convulxin): > 20 µM

Source: article PMC11002875, “Linking triphenylphosphonium cation to a bicyclic hydroquinone improves their antiplatelet effect via the regulation of mitochondrial function” (Redox Biology, 2024)
